From US20080021056A1, “Fused, Tricyclic Sulfonamide Inhibitors of Gamma Secretase” (priority 2006, published 2008)

Target: T1, gamma-secretase (Homo sapiens, UniProt P49768)
T1 construct: partially purified extract of IMR-32 cell membranes as the gamma-secretase enzyme preparation; endogenous in cells; host or cells: IMR-32 cell membranes (partially purified extract)
Experiment: Gamma-secretase APP enzyme assay
Assay type: biochemical
Settings: cleavage of MBP-C125 Swe substrate at the Aβ40 site, partially purified extract of IMR-32 cell membranes, ELISA
Description: The gamma-secretase APP enzyme assay was designed to measure the specific proteolytic cleavage of an APP substrate (MBP-C125 Swe fusion protein) at the Aβ40 site. The assay used a partially purified extract of IMR-32 cell membranes as the gamma-secretase enzyme preparation and a recombinant fusion protein containing the C-terminal 125 amino acids of the Swedish variant of the APP (MBP-C125swe) as the substrate. This assay involved two steps beginning with the enzymatic reaction generating a cleavage product that was captured with an immobilized antibody specific for the neo-epitope Aβ40 site. The captured cleavage product was then detected in a sandwich ELISA assay with a biotinylated reporter antibody that is specific to Aβ (17-28). Streptavidin-linked alkaline phosphatase was then added that would generate a fluorescent signal proportional to the amount of cleavage product. This assay was used to discover small molecule inhibitors of gamma-secretase.
Briefly, a 149 mg/ml solution of BIGCHAP detergent was made with water at 42° C. and then rotated for 30 minutes at the same temperatures This warmed solution of BigCHAPS (N,N-Bis(3-D-gluconamidopropyl)cholamide) detergent was used to dissolve Brain Extract Type-V (lipid containing a minimum of 40% phosphatidylethanolamine) from Signa (St. Louis, Mo.) to a concentration of 8 mg/ml. This solution containing BigCHAPS and lipid at 8 mg/ml is then diluted to 0.53 mg/ml lipid with a pre-warmed solution of Hepes and sodium chloride. This final solution containing Hepes buffer, sodium chloride, BigCHAPS detergent and lipid is used to create working solutions of both gamma-secretase (25 Units) and the MBP-C125 substrate (0.05 mg/ml).
Gamma-secretase was then added to a 96-well micro-titre plate and then incubated with various concentrations of inhibitor for 30 minutes at 37° C. MBPC125 substrate was then added to initiate the reaction that would run for two hours at 37° C. The reaction was quenched with the addition of SDS to a final concentration of 0.1% and then 100 μl of the reaction mixture was transferred to a capture ELISA plate and incubated overnight at 4° C. Detection of the cleavage product was performed using a standard sandwich ELISA assay and quantified using a six point standard curve.

Row | IC50 [nM] | IC50 (enantiomer A) [nM] | IC50 (enantiomer B) [nM] | SMILES
1 | 0.1 to 100 |  |  | O=S(=O)(c1ccc(C(F)(F)F)cc1)N1c2cc(F)c(F)cc2-c2[nH]ncc2C1C1CC1 (racemic) [4-cyclopropyl-7,8-difluoro-5-(4-(trifluoromethyl)phenylsulfonyl)-4,5-dihydro-1H-pyrazolo[4,3-c]quinoline]
2 | 0.1 to 100 |  |  | O=S(=O)(c1ccc(C(F)(F)F)cc1)N1c2ccc(F)cc2-c2[nH]ncc2C1C1CC1 (racemic) [4-cyclopropyl-8-fluoro-5-(4-(trifluoromethyl)phenylsulfonyl)-4,5-dihydro-1H-pyrazolo[4,3-c]quinoline]
3 | 0.1 to 100 |  |  | CC1c2cn[nH]c2C2CCCCC2N1S(=O)(=O)c1ccc(Cl)cc1 (racemic) [5-(4-chlorophenylsulfonyl)-4-methyl-4,5,5a,6,7,8,9,9a-octahydro-1H-pyrazolo[4,3-c]quinoline]
4 | 0.1 to 100 |  |  | CC1c2c[nH]nc2-c2ccccc2N1S(=O)(=O)c1ccc(Cl)cc1 (racemic) [5-[(4-chlorophenyl)sulfonyl]-4-methyl-4,5-dihydro-2H-pyrazolo[4,3-c]quinoline]
5 | 0.1 to 100 |  |  | CC1c2c[nH]nc2-c2cc(F)ccc2N1S(=O)(=O)c1ccc(Cl)cc1 (racemic) [5-[(4-chlorophenyl)sulfonyl]-8-fluoro-4-methyl-4,5-dihydro-2H-pyrazolo[4,3-c]quinoline]
6 | 101 to 500 |  |  | CC1c2cn[nH]c2-c2cc(F)ccc2N1S(=O)(=O)c1cccnc1 (racemic) [8-fluoro-4-methyl-5-(pyridin-3-ylsulfonyl)-4,5-dihydro-1H-pyrazolo[4,3-c]quinoline]
7 | 0.1 to 100 |  |  | O=S(=O)(c1ccc(C(F)(F)F)cc1)N1c2cc(F)c(F)cc2-c2[nH]ncc2C1C1CC1 (single isomer, unassigned) [4-cyclopropyl-7,8-difluoro-5-(4-(trifluoromethyl)phenylsulfonyl)-4,5-dihydro-1H-pyrazolo[4,3-c]quinoline]
8 | 0.1 to 100 |  |  | O=S(=O)(c1ccc(F)cc1)N1c2cc(F)c(F)cc2-c2n[nH]cc2C1C1CC1 (single isomer, unassigned) [4-cyclopropyl-7,8-difluoro-5-(4-fluorophenylsulfonyl)-4,5-dihydro-2H-pyrazolo[4,3-c]quinoline]
9 |  | 0.1 to 100 | 0.1 to 100 | O=S(=O)(c1ccc(C(F)(F)F)nc1)N1c2cc(F)c(F)cc2-c2[nH]ncc2C1C1CC1 (single isomer, unassigned) [4-cyclopropyl-7,8-difluoro-5-(6-(trifluoromethyl)pyridin-3-ylsulfonyl)-4,5-dihydro-1H-pyrazolo[4,3-c]quinoline]
10 |  | 0.1 to 100 | 101 to 500 | O=S(=O)(c1ccc(C(F)(F)F)cc1)N1c2ccc(F)cc2-c2[nH]ncc2C1C1CC1 (single isomer, unassigned) [4-cyclopropyl-8-fluoro-5-(4-(trifluoromethyl)phenylsulfonyl)-4,5-dihydro-1H-pyrazolo[4,3-c]quinoline]
11 |  | 101 to 500 | 0.1 to 100 | O=S(=O)(c1ccc(C(F)(F)F)cn1)N1c2ccc(F)cc2-c2[nH]ncc2C1C1CC1 (single isomer, unassigned) [4-cyclopropyl-8-fluoro-5-(5-(trifluoromethyl)pyridin-2-ylsulfonyl)-4,5-dihydro-1H-pyrazolo[4,3-c]quinoline]
12 |  | 0.1 to 100 | 0.1 to 100 | O=S(=O)(c1ccc(C(F)(F)F)nc1)N1c2ccc(F)cc2-c2n[nH]cc2C1C1CC1 (single isomer, unassigned) [4-cyclopropyl-8-fluoro-5-(6-(trifluoromethyl)pyridin-3-ylsulfonyl)-4,5-dihydro-2H-pyrazolo[4,3-c]quinoline]
13 |  | 101 to 500 | 1000 to 10000 | CC1c2c[nH]nc2-c2ccccc2N1S(=O)(=O)c1ccccn1 (single isomer, unassigned) [4-methyl-5-(pyridin-2-ylsulfonyl)-4,5-dihydro-1H-pyrazolo[4,3-c]quinoline]
14 |  | 101 to 500 | 0.1 to 100 | CC1c2cn[nH]c2C2CCCCC2N1S(=O)(=O)c1ccc(Cl)cc1 (single isomer, unassigned) [5-(4-chlorophenylsulfonyl)-4-methyl-4,5,5a,6,7,8,9,9a-octahydro-1H-pyrazolo[4,3-c]quinoline]
15 |  | 0.1 to 100 | 0.1 to 100 | CC1c2cn[nH]c2-c2ccc(O)cc2N1S(=O)(=O)c1ccc(Cl)cc1 (single isomer, unassigned) [5-(4-chlorophenylsulfonyl)-4-methyl-4,5-dihydro-1H-pyrazolo[4,3-c]quinolin-7-ol]
16 |  | 0.1 to 100 | 101 to 500 | CC1c2cn[nH]c2-c2cc(O)c(O)cc2N1S(=O)(=O)c1ccc(Cl)cc1 (single isomer, unassigned) [5-(4-chlorophenylsulfonyl)-4-methyl-4,5-dihydro-1H-pyrazolo[4,3-c]quinoline-7,8-diol]
17 |  | 0.1 to 100 | 0.1 to 100 | CC1c2c[nH]nc2-c2cc(F)c(F)cc2N1S(=O)(=O)c1ccc(Cl)cc1 (single isomer, unassigned) [5-(4-chlorophenylsulfonyl)-7,8-difluoro-4-methyl-4,5-dihydro-2H-pyrazolo[4,3-c]quinoline]
18 |  | 0.1 to 100 | 0.1 to 100 | O=S(=O)(c1ccc(Cl)s1)N1c2cc(F)c(F)cc2-c2n[nH]cc2C1C1CC1 (single isomer, unassigned) [5-(5-chlorothiophen-2-ylsulfonyl)-4-cyclopropyl-7,8-difluoro-4,5-dihydro-2H-pyrazolo[4,3-c]quinoline]
19 | 0.1 to 100 |  |  | CC1c2c[nH]nc2-c2cc(F)ccc2N1S(=O)(=O)c1ccc(Cl)cc1 (single isomer, unassigned) [5-[(4-chlorophenyl)sulfonyl]-8-fluoro-4-methyl-4,5-dihydro-2H-pyrazolo[4,3-c]quinoline]
20 |  | 0.1 to 100 | 101 to 500 | CC1c2cn[nH]c2-c2cc(F)c(F)cc2N1S(=O)(=O)c1ccc(C(F)(F)F)cc1 (single isomer, unassigned) [7,8-difluoro-4-methyl-5-(4-(trifluoromethyl)phenylsulfonyl)-4,5-dihydro-1H-pyrazolo[4,3-c]quinoline]
21 |  | 1000 to 10000 | 101 to 500 | CC1c2cnc(N)nc2-c2cc(F)ccc2N1S(=O)(=O)c1ccc(F)cc1 (single isomer, unassigned) [9-fluoro-6-(4-fluorophenylsulfonyl)-5-methyl-5,6-dihydropyrimido[5,4-c]quinolin-2-amine]
22 | 1000 to 10000 |  |  | O=c1c2cnn(S(=O)(=O)c3ccc(Cl)cc3)c2c2ccccc2n1S(=O)(=O)c1ccc(Cl)cc1 [1,5-bis(4-chlorophenylsulfonyl)-1H-pyrazolo[4,3-c]quinolin-4(5H)-one]
23 | 501 to 1000 |  |  | Cc1noc(C)c1S(=O)(=O)N1c2ccc(F)cc2-c2[nH]ncc2C1C (stereo not shown) [4-(8-fluoro-4-methyl-1H-pyrazolo[4,3-c]quinolin-5(4H)-ylsulfonyl)-3,5-dimethylisoxazole]
24 | 0.1 to 100 |  |  | O=S(=O)(c1ccc(OC(F)F)cc1)N1c2ccc(F)cc2-c2n[nH]cc2C1C1CC1 (stereo not shown) [4-cyclopropyl-5-(4-(difluoromethoxy)phenylsulfonyl)-8-fluoro-4,5-dihydro-1H-pyrazolo[4,3-c]quinoline]
25 | 501 to 1000 |  |  | O=S(=O)(c1ccc(C(F)(F)F)cc1)N1c2nccn2-c2[nH]ncc2C1C1CC1 (stereo not shown) [4-cyclopropyl-5-(4-(trifluoromethyl)phenylsulfonyl)-4,5-dihydro-1H-imidazo[1,2-a]pyrazolo[4,3-e]pyrimidine]
